Experimental data published in patent US20240067631A1, “PYRAZOLE DERIVATIVES USEFUL AS NAMPT MODULATORS” (Cytokinetics, Inc., priority 2020, published 2024).

Target: human NAMPT (Homo sapiens (Human), UniProt P43490)
Assay: Human recombinant enzyme assay (NMN fluorescence biochemical assay)
Conditions: 6 nM human NAMPT, 60 min; for AC1.4 Human: concentration of compound that generates 40% higher activity over basal; for EC50: concentration that gives half-maximal activation
Protocol: Compounds described herein were assayed for their ability to stimulate the synthesis of nicotinamide mononucleotide (NMN) by the enzyme NAMPT. The human recombinant enzyme assay measures the activation of the enzyme activity by compounds using recombinant enzyme and substrates in a buffered cell-free system. The assay conditions closely mimic cellular environments. Dose responses were measured using an assay to detect the formation of nicotinamide mono-nucleotide. All experiments were performed in the 384-well format. Generally, 0.5 μL of DMSO containing varying concentrations of the test compound was mixed with 10 μL of the enzyme reagent solution. Enzyme reactions were initiated with the addition of 10 μL of a solution containing the substrates. The final assay conditions were as follows: 6 nM human NAMPT, 2.5 mM ATP, […] in 50 mM HEPES, pH 7.2, 1 mM DTT, 1 mM CHAPS 50 mM NaCl, 100 mM MgCl2. Following an incubation of 60 min at ambient temperature, 10 μL of 20% acetophenone in DMSO was added, followed by 10 μL of 2 M KOH and 40 μL of formic acid. The plates were read for fluorescence (Excitation/Emission=355 nm/460 nm) using an EnVision plate reader after 40 mins of incubation at ambient temperature. The potency measurements for compounds, are quantified and represented as AC1.4 (the concentration of compounds that generates 40% higher activity over basal) and EC50 (concentration of the compound that gives half-maximal activation).

Sequence of human NAMPT (P43490 whole entry): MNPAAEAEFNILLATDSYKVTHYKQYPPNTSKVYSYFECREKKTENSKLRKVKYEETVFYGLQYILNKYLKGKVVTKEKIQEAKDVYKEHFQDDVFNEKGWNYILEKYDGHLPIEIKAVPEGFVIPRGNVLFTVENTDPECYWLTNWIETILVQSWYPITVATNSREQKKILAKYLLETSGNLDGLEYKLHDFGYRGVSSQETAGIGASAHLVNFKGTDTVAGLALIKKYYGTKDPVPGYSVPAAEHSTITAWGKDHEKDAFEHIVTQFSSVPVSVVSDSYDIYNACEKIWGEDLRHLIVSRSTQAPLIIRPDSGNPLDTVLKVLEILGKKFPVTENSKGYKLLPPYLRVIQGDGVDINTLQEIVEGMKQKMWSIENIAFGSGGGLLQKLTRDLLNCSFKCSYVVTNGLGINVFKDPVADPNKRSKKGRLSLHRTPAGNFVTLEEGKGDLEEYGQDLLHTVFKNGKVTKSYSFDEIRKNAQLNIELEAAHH

Structure (SMILES)	AC1.4 Human [µM]	EC50 [µM]
Cc1cccc([C@@H](C)NC(=O)c2nc(C)c(C)c(NCCc3cn[nH]c3)n2)n1 [Compound 78, (R)-4-((2-(1H-pyrazol-4-yl)ethyl)amino)-5,6-dimethyl-N-(1-(6-methylpyridin-2-yl)ethyl)pyrimidine-2-carboxamide]	0.81	5.62
Cc1nc(C(=O)N2CC(C)(c3ccccc3)C2)nc(NCCc2cn[nH]c2)c1C [Compound 89, (4-((2-(1H-pyrazol-4-yl)ethyl)amino)-5,6-dimethylpyrimidin-2-yl)(3-methyl-3-phenylazetidin-1-yl)methanone]	4.9195	37.3
Cc1nc(C(=O)N[C@H](C)c2cncc(F)c2)nc(NCCc2cn[nH]c2)c1C [Compound 109, (R)-4-((2-(1H-pyrazol-4-yl)ethyl)amino)-N-(1-(5-fluoropyridin-3-yl)ethyl)-5,6-dimethylpyrimidine-2-carboxamide]	1.933	11.2
Cc1nc(C(=O)NC(C)(C)c2ccccn2)nc(NCCc2cn[nH]c2)c1C [Compound 69, 4-((2-(1H-pyrazol-4-yl)ethyl)amino)-5,6-dimethyl-N-(2-(pyridin-2-yl)propan-2-yl)pyrimidine-2-carboxamide]	0.5395	4.18
Cc1nc(C(=O)N2CCC(c3c[nH]c4ccccc34)CC2)nc(NCCc2cn[nH]c2)c1C [Compound 6, (4-(1H-indol-3-yl)piperidin-1-yl)(4-((2-(1H-pyrazol-4-yl)ethyl)amino)-5,6-dimethylpyrimidin-2-yl)methanone]	0.0385	1.84
Cc1nc(C(=O)NCC(O)C(F)(F)F)nc(NCCc2cn[nH]c2)c1C (centres unmarked) [Compound 128, 4-((2-(1H-pyrazol-4-yl)ethyl)amino)-5,6-dimethyl-N-(3,3,3-trifluoro-2-hydroxypropyl)pyrimidine-2-carboxamide]	3.235	28
COc1cccc(C(C)NC(=O)c2nc(C)c(C)c(NCCc3cn[nH]c3)n2)n1 (centres unmarked) [Compound 68, 4-((2-(1H-pyrazol-4-yl)ethyl)amino)-N-(1-(6-methoxypyridin-2-yl)ethyl)-5,6-dimethylpyrimidine-2-carboxamide]	0.563	1.64
Cc1nc(C(=O)NCC(C)(O)c2ccccc2)nc(NCCc2cn[nH]c2)c1C (centres unmarked) [Compound 104, 4-((2-(1H-pyrazol-4-yl)ethyl)amino)-N-(2-hydroxy-2-phenylpropyl)-5,6-dimethylpyrimidine-2-carboxamide]	1.6495	11.3
C[C@@H](NC(=O)c1nc2c(c(NCCc3cn[nH]c3)n1)CCC2)c1cccc(F)n1 [Compound 146, (R)-4-((2-(1H-pyrazol-4-yl)ethyl)amino)-N-(1-(6-fluoropyridin-2-yl)ethyl)-6,7-dihydro-5H-cyclopenta[d] pyrimidine-2-carboxamide]	2.7	–
COC1(c2ccccc2)CN(C(=O)c2nc(C)c(C)c(NCCc3cn[nH]c3)n2)C1 [Compound 102, (4-((2-(1H-pyrazol-4-yl)ethyl)amino)-5,6-dimethylpyrimidin-2-yl)(3-methoxy-3-phenylazetidin-1-yl)methanone]	2.0105	12.9
Cc1nc(C(=O)NC(C)c2ccc(Cl)s2)nc(NCCc2cn[nH]c2)c1C (centres unmarked) [Compound 70, 4-((2-(1H-pyrazol-4-yl)ethyl)amino)-N-(1-(5-chlorothiophen-2-yl)ethyl)-5,6-dimethylpyrimidine-2-carboxamide]	0.5795	3.12
Cc1nc(C(=O)N2CC(CO)(c3ccccc3)C2)nc(NCCc2cn[nH]c2)c1C [Compound 84, (4-((2-(1H-pyrazol-4-yl)ethyl)amino)-5,6-dimethylpyrimidin-2-yl)(3-(hydroxymethyl)-3-phenylazetidin-1-yl)methanone]	31.857	40.2
Cc1nc(C(=O)N2CCC(C(F)(F)F)CC2)nc(NCCc2cn[nH]c2)c1C [Compound 119, (4-((2-(1H-pyrazol-4-yl)ethyl)amino)-5,6-dimethylpyrimidin-2-yl)(4-(trifluoromethyl)piperidin-1-yl)methanone]	32.854	47.2
Cc1nc(C(=O)N2CC(O)(c3ccccc3)C2)nc(N2CC[C@@H](c3cn[nH]c3)C2)c1C (single isomer, unassigned) [Compound 9]	0.044	0.633
Cc1nc(C(=O)N2CC(O)(C3CC3)C2)nc(NCCc2cn[nH]c2)c1C [Compound 97, (4-((2-(1H-pyrazol-4 yl)ethyl)amino)-5,6-dimethylpyrimidin-2-yl)(3-cyclopropyl-3-hydroxyazetidin-1-yl)methanone]	6.337	22.3
COCC(c1ccc(F)cc1)N(C)C(=O)c1nc(C)c(C)c(NCCc2cn[nH]c2)n1 (centres unmarked) [Compound 92, 4-((2-(1H-pyrazol-4-yl)ethyl)amino)-N-(1-(4-fluorophenyl)-2-methoxyethyl)-N,5,6-trimethylpyrimidine-2-carboxamide]	1.1995	5.68
Cc1nc(C(=O)N2CC(O)(c3ccccc3F)C2)nc(NCCc2cn[nH]c2)c1C [Compound 77, (4-((2-(1H-pyrazol-4-yl)ethyl)amino)-5,6-dimethylpyrimidin-2-yl)(3-(2-fluorophenyl)-3-hydroxyazetidin-1-yl)methanone]	0.8835	13.7
Cc1nc(C(=O)NCc2ccncc2)nc(NCCc2cn[nH]c2)c1C [Compound 133, 4-((2-(1H-pyrazol-4-yl)ethyl)amino)-5,6-dimethyl-N-(pyridin-4-ylmethyl)pyrimidine-2-carboxamide]	3.5315	28.9
Cc1nc(C(=O)N[C@H](C)c2cccc(F)c2)nc(NCCc2cn[nH]c2)c1C [Compound 39, (R)-4-((2-(1H-pyrazol-4-yl)ethyl)amino)-N-(1-(3-fluorophenyl)ethyl)-5,6-dimethylpyrimidine-2-carboxamide]	0.21	1.51
Cc1nc(C(=O)NCc2ncccc2F)nc(NCCc2cn[nH]c2)c1C [Compound 120, 4-((2-(1H-pyrazol-4-yl)ethyl)amino)-N-((3-fluoropyridin-2-yl)methyl)-5,6-dimethylpyrimidine-2-carboxamide]	2.443	15.2
Cc1nc(C(=O)NC(C)c2cccc(Cl)n2)nc(NCCc2cn[nH]c2)c1C (centres unmarked) [Compound 36, 4-((2-(1H-pyrazol-4-yl)ethyl)amino)-N-(1-(6-chloropyridin-2-yl)ethyl)-5,6-dimethylpyrimidine-2-carboxamide]	0.2015	0.882
Cc1nc(C(=O)NCCS(=O)(=O)Cc2ccccc2)nc(NCCc2cn[nH]c2)c1C [Compound 141, 4-((2-(1H-pyrazol-4-yl)ethyl)amino)-N-(2-(benzylsulfonyl)ethyl)-5,6-dimethylpyrimidine-2-carboxamide]	3.8305	20.3
CCC1(O)CN(C(=O)c2nc(C)c(C)c(NCCc3cn[nH]c3)n2)C1 [Compound 107, (4-((2-(1H-pyrazol-4-yl)ethyl)amino)-5,6-dimethylpyrimidin-2-yl)(3-ethyl-3-hydroxyazetidin-1-yl)methanone]	2.339	14
Cc1nc(C(=O)NC(c2ccccc2)C(F)(F)F)nc(NCCc2cn[nH]c2)c1C (centres unmarked) [Compound 33, 4-((2-(1H-pyrazol-4-yl)ethyl)amino)-5,6-dimethyl-N-(2,2,2-trifluoro-1-phenylethyl)pyrimidine-2-carboxamide]	0.2615	1.38
Cc1nc(C(=O)NCc2ccccc2)nc(NCCc2cn[nH]c2)c1C [Compound 31, 4-((2-(1H-pyrazol-4-yl)ethyl)amino)-N-benzyl-5,6-dimethylpyrimidine-2-carboxamide]	0.192	1.61
Cc1nc(C(=O)N2CCC[C@@H]2c2ccccc2F)nc(NCCc2cn[nH]c2)c1C [Compound 54, (R)-(4-((2-(1H-pyrazol-4-yl)ethyl)amino)-5,6-dimethylpyrimidin-2-yl)(2-(2-fluorophenyl)pyrrolidin-1-yl)methanone]	0.35	2.37
Cc1nc(C(=O)NC(C)(C)c2cccnc2)nc(NCCc2cn[nH]c2)c1C [Compound 121, 4-((2-(1H-pyrazol-4-yl)ethyl)amino)-5,6-dimethyl-N-(2-(pyridin-3-yl)propan-2-yl)pyrimidine-2-carboxamide]	2.5075	22.1
